For data set [1], the target named is Histone-lysine N-methyltransferase, H3 lysine-36 specific (Homo sapiens) (UniProt Q96L73). The data set can be described thus: Inhibition of NSD1 (unknown origin) at 10 uM using SAM as substrate measured up to 960 mins by AlphaScreen microplate reader assay relative to control. The note with it: time min <=960. (Alpha assays give light when donor and acceptor beads are brought close together.)

The nature of data set [2]: Clearance in rat at 10 mg/kg, po. It is filed as ADME, organism-based. The following applies: in vivo.
Data set [3] deals with KARPAS-422. The experiment in a line: Antitumor activity against human KARPAS-422 cells harboring EZH2 Y641N mutant xenografted in NCG mouse assessed as tumor growth inhibition at 200 mg/kg, po BID via gavage measured after 28 days relative to control. It counts as functional. The following applies: KARPAS-422, po, 672 h, time 28 day, read-out: TGI.
Data set [4] has as its system Pfeiffer. The experiment in a line: Antiproliferative activity against human Pfeiffer cells harboring EZH2 A677G mutant assessed as inhibition of cell growth measured after 6 days by CellTiter-Glo luminescent assay. It counts as functional. The note with it: 144 h, time 6 day.
Data set [5] relates to Histone-lysine N-methyltransferase EZH2 (Homo sapiens), Q15910 [Y641C]. The experiment in a line: Inhibition of EZH2 Y641C mutant (unknown origin) at 10 uM using SAM as substrate measured up to 960 mins by AlphaScreen microplate reader assay relative to control. The following applies: time min <=960.
Chain of Histone-lysine N-methyltransferase EZH2 (Homo sapiens), Q15910 [Y641C] (Q15910 whole entry Y641C): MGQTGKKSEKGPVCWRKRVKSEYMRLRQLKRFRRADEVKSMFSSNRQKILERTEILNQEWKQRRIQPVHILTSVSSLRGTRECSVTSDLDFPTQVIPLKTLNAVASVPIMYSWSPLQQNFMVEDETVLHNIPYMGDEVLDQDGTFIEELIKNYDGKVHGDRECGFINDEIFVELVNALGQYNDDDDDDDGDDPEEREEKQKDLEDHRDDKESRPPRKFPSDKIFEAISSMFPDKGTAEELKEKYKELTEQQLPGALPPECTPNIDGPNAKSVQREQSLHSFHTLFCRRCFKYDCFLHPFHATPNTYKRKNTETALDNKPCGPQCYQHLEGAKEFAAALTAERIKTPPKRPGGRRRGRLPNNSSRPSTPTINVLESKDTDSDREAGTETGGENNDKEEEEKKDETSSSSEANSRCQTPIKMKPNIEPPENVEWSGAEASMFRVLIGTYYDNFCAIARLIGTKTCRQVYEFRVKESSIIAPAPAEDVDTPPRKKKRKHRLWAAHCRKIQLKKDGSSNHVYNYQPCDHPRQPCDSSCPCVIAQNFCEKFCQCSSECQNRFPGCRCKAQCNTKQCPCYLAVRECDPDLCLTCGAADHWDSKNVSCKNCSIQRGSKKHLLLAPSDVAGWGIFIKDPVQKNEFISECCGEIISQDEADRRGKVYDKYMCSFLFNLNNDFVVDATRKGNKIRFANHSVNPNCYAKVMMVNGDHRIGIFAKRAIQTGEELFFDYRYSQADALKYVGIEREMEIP
A further data set deals with Raji. The experiment in a line: Antiproliferative activity against human Raji cells expressing wild type EZH2 assessed as inhibition of cell growth measured after 6 days by CellTiter-Glo luminescent assay. The note with it: 144 h. A general note: ATP-based viability assays read luminescence as a measure of living cells.
The target of data set [6] is Protein arginine N-methyltransferase 8 (Homo sapiens) (UniProt Q9NR22). The data set can be described thus: Inhibition of PRMT8 (unknown origin) at 10 uM using SAM as substrate measured up to 960 mins by AlphaScreen microplate reader assay relative to control. The following applies: time min <=960.
Chain of Protein arginine N-methyltransferase 8 (Homo sapiens) (Q9NR22 2-394 limits assumed): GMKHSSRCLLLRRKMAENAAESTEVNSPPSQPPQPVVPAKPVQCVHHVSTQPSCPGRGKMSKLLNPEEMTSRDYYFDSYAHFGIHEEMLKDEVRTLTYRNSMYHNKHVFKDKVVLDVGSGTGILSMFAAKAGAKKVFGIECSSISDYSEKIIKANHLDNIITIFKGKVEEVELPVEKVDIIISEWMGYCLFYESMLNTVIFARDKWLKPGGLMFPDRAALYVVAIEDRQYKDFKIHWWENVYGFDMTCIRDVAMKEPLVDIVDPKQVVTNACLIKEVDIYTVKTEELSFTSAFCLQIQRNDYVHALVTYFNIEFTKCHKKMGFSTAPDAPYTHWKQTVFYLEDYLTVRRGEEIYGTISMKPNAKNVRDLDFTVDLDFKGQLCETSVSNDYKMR
Data set [7] concerns Pfeiffer. The experiment in a line: Antitumor activity against human Pfeiffer cells harboring EZH2 A677G mutant xenografted in NCG mouse assessed as tumor growth inhibition at 200 mg/kg, po BID via gavage measured after 28 days relative to control. It is filed as functional. The following applies: 672 h, time 28 day, read-out: TGI. On the technique in general: In xenograft studies the graft and the host belong to different species.

Data set [8] is described as follows: Cmax in mouse at 1 mg/kg, iv measured up to 24 hrs by LC-MS/MS analysis. It is filed as ADME, organism-based. Set-up: route intravenous, dose 1 mg/kg, time <=24. The note with it: in vivo.
Data set [9] relates to Histone-lysine N-methyltransferase EZH2 (Homo sapiens), Q15910 [Y641F]. The experiment in a line: Inhibition of EZH2 Y641F mutant (unknown origin) at 10 uM using SAM as substrate measured up to 960 mins by AlphaScreen microplate reader assay relative to control. The note with it: time min <=960.
Chain of Histone-lysine N-methyltransferase EZH2 (Homo sapiens), Q15910 [Y641F] (Q15910 whole entry Y641F, looked up): as the sequence (Q15910 whole entry Y641C) above, with C641F counted along it
Data set [10] concerns KARPAS-422. The experiment in a line: Antitumor activity against human KARPAS-422 cells harboring EZH2 Y641N mutant xenografted in NCG mouse assessed as tumor growth inhibition at 50 mg/kg, po BID via gavage measured after 28 days relative to control. It counts as functional. The note with it: KARPAS-422, po, 672 h, time 28 day, read-out: TGI.
The target in data set [11] is Histone-lysine N-methyltransferase EHMT2 (Homo sapiens) (UniProt Q96KQ7). The experiment in a line: Inhibition of G9A (unknown origin) at 10 uM using SAM as substrate measured up to 960 mins by AlphaScreen microplate reader assay relative to control. The note with it: time min <=960.
Chain of Histone-lysine N-methyltransferase EHMT2 (Homo sapiens) (Q96KQ7 whole entry): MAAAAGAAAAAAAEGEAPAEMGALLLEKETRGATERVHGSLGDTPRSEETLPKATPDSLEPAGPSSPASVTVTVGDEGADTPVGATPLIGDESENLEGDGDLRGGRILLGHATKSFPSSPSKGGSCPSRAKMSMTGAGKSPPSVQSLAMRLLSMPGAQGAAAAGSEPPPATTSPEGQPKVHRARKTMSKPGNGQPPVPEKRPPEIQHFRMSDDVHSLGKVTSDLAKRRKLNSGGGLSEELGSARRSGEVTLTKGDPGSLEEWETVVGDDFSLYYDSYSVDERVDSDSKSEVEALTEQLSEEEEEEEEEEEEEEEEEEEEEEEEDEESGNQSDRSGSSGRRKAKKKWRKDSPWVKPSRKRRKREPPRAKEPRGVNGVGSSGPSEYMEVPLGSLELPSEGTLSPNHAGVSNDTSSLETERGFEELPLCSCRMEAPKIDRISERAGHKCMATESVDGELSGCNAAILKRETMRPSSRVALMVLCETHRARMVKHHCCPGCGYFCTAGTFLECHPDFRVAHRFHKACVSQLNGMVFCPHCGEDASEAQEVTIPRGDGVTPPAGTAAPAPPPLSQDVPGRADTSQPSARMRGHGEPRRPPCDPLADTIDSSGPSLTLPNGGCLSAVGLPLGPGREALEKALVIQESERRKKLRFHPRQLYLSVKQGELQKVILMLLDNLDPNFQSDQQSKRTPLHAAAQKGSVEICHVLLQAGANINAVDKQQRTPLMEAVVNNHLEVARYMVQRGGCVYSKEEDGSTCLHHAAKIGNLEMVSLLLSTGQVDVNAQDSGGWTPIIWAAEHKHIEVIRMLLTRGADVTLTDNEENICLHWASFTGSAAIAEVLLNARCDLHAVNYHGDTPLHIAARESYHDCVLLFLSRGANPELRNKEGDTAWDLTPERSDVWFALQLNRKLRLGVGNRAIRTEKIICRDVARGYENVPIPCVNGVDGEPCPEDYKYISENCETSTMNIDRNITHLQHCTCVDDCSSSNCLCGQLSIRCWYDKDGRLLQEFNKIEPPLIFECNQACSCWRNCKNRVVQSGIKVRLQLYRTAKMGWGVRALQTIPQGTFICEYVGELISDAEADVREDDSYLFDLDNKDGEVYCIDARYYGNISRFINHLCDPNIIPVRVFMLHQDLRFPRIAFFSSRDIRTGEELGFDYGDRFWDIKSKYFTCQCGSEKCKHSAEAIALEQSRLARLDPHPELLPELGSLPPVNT
For data set [12], the target named is Histone-lysine N-methyltransferase EHMT1 (Homo sapiens) (UniProt Q9H9B1). The data set can be described thus: Inhibition of GLP (unknown origin) at 10 uM using SAM as substrate measured up to 960 mins by AlphaScreen microplate reader assay relative to control. The note with it: time min <=960.
Chain of Histone-lysine N-methyltransferase EHMT1 (Homo sapiens) (Q9H9B1 whole entry): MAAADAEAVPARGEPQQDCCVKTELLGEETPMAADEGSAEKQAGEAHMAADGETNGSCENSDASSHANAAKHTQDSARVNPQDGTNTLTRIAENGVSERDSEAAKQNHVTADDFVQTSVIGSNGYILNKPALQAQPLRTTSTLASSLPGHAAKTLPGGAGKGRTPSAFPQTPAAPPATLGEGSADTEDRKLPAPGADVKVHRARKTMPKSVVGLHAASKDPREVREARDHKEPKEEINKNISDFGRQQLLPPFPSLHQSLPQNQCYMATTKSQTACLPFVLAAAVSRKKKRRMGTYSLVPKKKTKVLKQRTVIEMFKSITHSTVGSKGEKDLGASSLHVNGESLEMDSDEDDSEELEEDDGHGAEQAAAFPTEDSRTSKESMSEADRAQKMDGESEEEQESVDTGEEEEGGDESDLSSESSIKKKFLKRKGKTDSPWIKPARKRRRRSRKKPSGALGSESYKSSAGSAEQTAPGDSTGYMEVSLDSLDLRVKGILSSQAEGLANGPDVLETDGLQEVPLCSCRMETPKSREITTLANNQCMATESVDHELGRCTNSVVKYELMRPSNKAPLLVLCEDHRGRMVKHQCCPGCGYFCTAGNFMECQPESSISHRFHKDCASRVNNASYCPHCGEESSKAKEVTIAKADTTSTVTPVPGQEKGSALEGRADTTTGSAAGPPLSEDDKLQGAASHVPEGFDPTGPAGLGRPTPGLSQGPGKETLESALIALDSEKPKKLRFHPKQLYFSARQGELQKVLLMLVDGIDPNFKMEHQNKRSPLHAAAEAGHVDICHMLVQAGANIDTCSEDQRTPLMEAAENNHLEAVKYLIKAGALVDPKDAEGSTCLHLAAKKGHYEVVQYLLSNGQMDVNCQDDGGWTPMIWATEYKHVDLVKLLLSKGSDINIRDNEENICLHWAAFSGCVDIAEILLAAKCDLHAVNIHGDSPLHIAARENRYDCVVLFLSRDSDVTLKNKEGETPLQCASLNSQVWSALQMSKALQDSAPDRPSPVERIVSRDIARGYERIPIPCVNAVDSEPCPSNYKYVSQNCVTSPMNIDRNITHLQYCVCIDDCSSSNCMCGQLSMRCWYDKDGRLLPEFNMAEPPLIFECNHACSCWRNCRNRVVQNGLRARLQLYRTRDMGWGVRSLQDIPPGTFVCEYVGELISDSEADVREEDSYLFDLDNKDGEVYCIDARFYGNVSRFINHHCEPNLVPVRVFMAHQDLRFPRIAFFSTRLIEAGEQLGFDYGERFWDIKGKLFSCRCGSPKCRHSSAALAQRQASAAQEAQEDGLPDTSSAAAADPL

Results on one compound are retold here after ChEMBL document CHEMBL4831544, “Discovery of IHMT-EZH2-115 as a Potent and Selective Enhancer of Zeste Homolog 2 (EZH2) Inhibitor for the Treatment of B-Cell Lymphomas” (J Med Chem, 2021).

As a reminder, the inhibition is how much of the control response was suppressed. By CL/F is commonly meant clearance divided by bioavailability, as obtained after extravascular dosing. One may read the GI50 as the concentration that inhibits growth by half. By Cmax is commonly meant the highest concentration seen after dosing.

Turning to `CCN(C(=O)C1CC1)c1cc(-c2ccc(N3CCN(CC4CC4)CC3)nc2C)cc(C(=O)NCc2c(C)cc(C)[nH]c2=O)c1C`, the inhibition was found to be 12% in data set [1]; 95% in data set [5]; 0% in [6]; 99% in [9]; 0% in data set [11]; 0% in data set [12]. Further, the CL/F in data set [2] was 291 mL/min/kg. The inhibition in vivo at 200 mg/kg with KARPAS-422 [3] worked out at 97.3%; in the data set on Pfeiffer [7] it was 100%. Further, the GI50 was 3 nM in the data set on Pfeiffer [4] and > 10 µM in the data set with Raji. Moreover, in data set [8], the highest concentration (Cmax) was 1240 ng/mL. Moreover, in the data set with KARPAS-422 [10], the inhibition in vivo at 50 mg/kg came out at 47.7%.
